≈ marks a conversion by molar mass, not a printed value.
Experiments:
[1] = Hepatotoxicity using isolated ICR mouse hepatocytes by inclusion body formation assay (In Vitro); format: functional, cell-based; conditions: Hepatocyte
Candida albicans [2] = assay: In vitro antifungal activity against Candida albicans […] in the absence of 80% calf serum; format: functional, organism-based
Beta-1,3-glucan synthase = Beta-1,3-glucan synthase (Candida albicans, UniProt O13428); assay: Inhibition of 1,3-beta-D-glucan synthase (GS) from candida albicans
Sequence of Beta-1,3-glucan synthase (O13428 whole entry): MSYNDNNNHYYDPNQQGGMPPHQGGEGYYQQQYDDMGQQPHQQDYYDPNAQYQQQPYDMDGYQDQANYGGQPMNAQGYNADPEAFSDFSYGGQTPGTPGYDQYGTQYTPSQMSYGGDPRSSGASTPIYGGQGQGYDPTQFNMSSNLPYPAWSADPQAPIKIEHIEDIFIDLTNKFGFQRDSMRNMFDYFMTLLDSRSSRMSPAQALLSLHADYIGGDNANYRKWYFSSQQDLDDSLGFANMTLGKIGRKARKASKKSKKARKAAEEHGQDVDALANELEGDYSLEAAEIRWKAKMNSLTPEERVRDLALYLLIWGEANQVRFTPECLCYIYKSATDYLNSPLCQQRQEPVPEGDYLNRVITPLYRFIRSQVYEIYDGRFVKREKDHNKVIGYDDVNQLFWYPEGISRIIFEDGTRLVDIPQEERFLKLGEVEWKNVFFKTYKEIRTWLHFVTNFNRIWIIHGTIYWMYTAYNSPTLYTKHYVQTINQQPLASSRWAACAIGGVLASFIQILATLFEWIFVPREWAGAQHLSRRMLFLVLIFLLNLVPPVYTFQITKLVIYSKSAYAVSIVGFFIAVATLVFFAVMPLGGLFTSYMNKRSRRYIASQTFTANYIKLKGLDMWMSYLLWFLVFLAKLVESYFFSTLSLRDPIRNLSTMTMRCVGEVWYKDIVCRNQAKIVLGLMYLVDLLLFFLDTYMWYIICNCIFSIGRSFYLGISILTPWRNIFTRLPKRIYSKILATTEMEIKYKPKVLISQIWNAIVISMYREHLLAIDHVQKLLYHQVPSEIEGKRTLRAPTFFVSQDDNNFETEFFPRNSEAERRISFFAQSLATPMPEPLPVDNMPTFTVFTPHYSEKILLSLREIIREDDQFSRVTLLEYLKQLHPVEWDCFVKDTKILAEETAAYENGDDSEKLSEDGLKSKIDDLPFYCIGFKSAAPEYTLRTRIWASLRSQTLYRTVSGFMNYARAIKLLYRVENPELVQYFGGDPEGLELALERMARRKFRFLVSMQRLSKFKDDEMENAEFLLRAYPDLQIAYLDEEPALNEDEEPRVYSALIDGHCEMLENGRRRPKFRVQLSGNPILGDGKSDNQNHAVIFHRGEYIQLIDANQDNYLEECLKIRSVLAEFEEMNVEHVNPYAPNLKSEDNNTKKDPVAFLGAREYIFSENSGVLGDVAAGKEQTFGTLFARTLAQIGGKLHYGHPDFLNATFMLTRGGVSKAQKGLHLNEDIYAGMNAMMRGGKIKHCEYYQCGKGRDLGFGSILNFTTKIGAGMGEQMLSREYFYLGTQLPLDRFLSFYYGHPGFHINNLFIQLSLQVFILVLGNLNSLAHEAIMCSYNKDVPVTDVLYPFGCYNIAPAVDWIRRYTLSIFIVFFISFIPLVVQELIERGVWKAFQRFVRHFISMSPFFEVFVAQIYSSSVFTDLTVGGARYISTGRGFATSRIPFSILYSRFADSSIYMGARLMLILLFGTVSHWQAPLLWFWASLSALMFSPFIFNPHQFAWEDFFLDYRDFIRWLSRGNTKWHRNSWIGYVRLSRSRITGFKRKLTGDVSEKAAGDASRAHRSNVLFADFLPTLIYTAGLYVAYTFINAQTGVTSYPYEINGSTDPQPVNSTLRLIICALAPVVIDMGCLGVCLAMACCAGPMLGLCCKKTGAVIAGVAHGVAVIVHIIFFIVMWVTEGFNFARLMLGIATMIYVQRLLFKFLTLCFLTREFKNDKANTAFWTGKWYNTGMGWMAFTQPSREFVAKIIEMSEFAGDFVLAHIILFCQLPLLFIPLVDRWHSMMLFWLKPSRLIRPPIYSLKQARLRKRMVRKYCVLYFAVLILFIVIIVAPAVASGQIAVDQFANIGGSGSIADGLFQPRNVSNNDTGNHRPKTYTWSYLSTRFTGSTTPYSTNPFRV

Mus musculus = assay: In vivo antifungal activity against systemic candidiasis in mouse model after a single iv administration; format: functional
Candida albicans [3] = assay: In vitro antifungal activity against Candida albicans CY1002 in the presence of 80% calf serum; format: functional, organism-based
[4] = Hepatotoxicity determined using isolated ICR mouse hepatocytes by inclusion body formation assay (In Vitro); format: functional, cell-based; conditions: Hepatocyte

CCCCCCCCCCCCC[C@@H]1CC(=O)N[C@@H]([C@@H](C)O)C(=O)N[C@H](C)C(=O)N[C@@H](Cc2ccc(O)cc2)C(=O)N[C@@H](C(C)C)C(=O)N2C[C@H](O)C[C@H]2C(=O)N[C@@H]([C@@H](C)O)C(=O)N[C@@H]([C@@H](C)O)C(=O)N2CC[C@H](O)[C@H]2C(=O)N[C@@H]([C@H](O)CC(N)=O)C(=O)NCC(=O)N[C@@H]([C@@H](C)O)C(=O)N[C@@H](CCCNC(=O)C(N)CCCN)C(=O)O1 (some centres not stated)
IC50 [1]: 10 µg/mL (≈ 6.07 µM) | IC50 (Candida albicans [2]): 0.08 µg/mL (≈ 0.0485 µM) | IC50 (Beta-1,3-glucan synthase): 8 nM | ED50 (Mus musculus): 0.2 mg/kg | IC50 (Candida albicans [3]): 0.47 µg/mL

CCCCCCCCCCCCC[C@@H]1CC(=O)N[C@@H]([C@H](C)O)C(=O)N[C@H](C)C(=O)N[C@@H](Cc2ccc(O)cc2)C(=O)N[C@@H](C(C)C)C(=O)N2C[C@H](O)C[C@H]2C(=O)N[C@@H]([C@@H](C)O)C(=O)N[C@@H]([C@@H](C)O)C(=O)N2CC[C@H](O)[C@H]2C(=O)N[C@@H]([C@H](O)CC(N)=O)C(=O)NCC(=O)N[C@@H]([C@@H](C)O)C(=O)N[C@@H](CCCNC(C)=O)C(=O)O1
IC50 (Beta-1,3-glucan synthase): 230 nM

CCCCCCCCCCCCC[C@@H]1CC(=O)N[C@@H]([C@@H](C)O)C(=O)N[C@H](C)C(=O)N[C@@H](Cc2ccc(O)cc2)C(=O)N[C@@H](C(C)C)C(=O)N2C[C@H](O)C[C@H]2C(=O)N[C@@H]([C@@H](C)O)C(=O)N[C@@H]([C@@H](C)O)C(=O)N2CC[C@H](O)[C@H]2C(=O)N[C@@H]([C@H](O)CC(N)=O)C(=O)NCC(=O)N[C@H]([C@@H](C)O)C(=O)N[C@@H](CCCNC(=O)CN)C(=O)O1
IC50 (Beta-1,3-glucan synthase): 20 nM

CCCCCCCCCCCCC[C@@H]1CC(=O)N[C@@H]([C@@H](C)O)C(=O)N[C@H](C)C(=O)N[C@@H](Cc2ccc(O)cc2)C(=O)N[C@@H](C(C)C)C(=O)N2C[C@H](O)C[C@H]2C(=O)N[C@@H]([C@@H](C)O)C(=O)N[C@@H]([C@@H](C)O)C(=O)N2CC[C@H](O)[C@H]2C(=O)N[C@@H]([C@H](O)CC(N)=O)C(=O)NCC(=O)N[C@@H]([C@@H](C)O)C(=O)N[C@H](CCCNC(=O)C(N)CCCN)C(=O)O1 (some centres not stated)
IC50 [1]: 30 µg/mL (≈ 18.2 µM) | IC50 (Candida albicans [2]): 0.12 µg/mL (≈ 0.0728 µM) | IC50 (Beta-1,3-glucan synthase): 5 nM | ED50 (Mus musculus): 0.1 mg/kg | IC50 (Candida albicans [3]): 0.33 µg/mL

CCCCCCCCCCCCC[C@@H]1CC(=O)N[C@@H]([C@@H](C)O)C(=O)N[C@H](C)C(=O)N[C@@H](Cc2ccc(O)cc2)C(=O)N[C@@H](C(C)C)C(=O)N2C[C@H](O)C[C@H]2C(=O)N[C@@H]([C@@H](C)O)C(=O)N[C@@H]([C@@H](C)O)C(=O)N2CC[C@H](O)[C@H]2C(=O)N[C@@H]([C@H](O)CC(N)=O)C(=O)NCC(=O)N[C@@H]([C@@H](C)O)C(=O)N[C@@H](CCCN)C(=O)O1
IC50 [1]: 10 µg/mL (≈ 6.52 µM) | IC50 (Candida albicans [2]): 0.02 µg/mL (≈ 0.013 µM) | IC50 (Beta-1,3-glucan synthase): 12 nM | IC50 (Candida albicans [3]): 0.57 µg/mL

CCCCCCCCCCCCC[C@@H]1CC(=O)N[C@@H]([C@@H](C)O)C(=O)N[C@H](C)C(=O)N[C@@H](Cc2ccc(O)cc2)C(=O)N[C@@H](C(C)C)C(=O)N2C[C@H](O)C[C@H]2C(=O)N[C@@H]([C@@H](C)O)C(=O)N[C@@H]([C@@H](C)O)C(=O)N2CC[C@H](O)[C@H]2C(=O)N[C@@H]([C@H](O)CC(N)=O)C(=O)NCC(=O)N[C@@H]([C@@H](C)O)C(=O)N[C@@H](CCCNC(=O)OC(C)(C)C)C(=O)O1
ED50 (Mus musculus): 0.22 mg/kg

CCCCCCCCCCCCC[C@@H]1CC(=O)N[C@@H]([C@H](C)O)C(=O)N[C@H](C)C(=O)N[C@@H](Cc2ccc(OCc3ccccc3)cc2)C(=O)N[C@@H](C(C)C)C(=O)N2C[C@H](O)C[C@H]2C(=O)N[C@H]([C@@H](C)O)C(=O)N[C@@H]([C@@H](C)O)C(=O)N2CC[C@H](O)[C@H]2C(=O)N[C@@H]([C@H](O)CC(N)=O)C(=O)NCC(=O)N[C@@H]([C@@H](C)O)C(=O)N[C@@H](CCCN)C(=O)O1
IC50 (Beta-1,3-glucan synthase): > 130 nM

CCCCCCCCCCCCC[C@@H]1CC(=O)N[C@@H]([C@@H](C)O)C(=O)N[C@H](C)C(=O)N[C@@H](Cc2ccc(O)cc2)C(=O)N[C@@H](C(C)C)C(=O)N2C[C@H](O)C[C@H]2C(=O)N[C@@H]([C@@H](C)O)C(=O)N[C@@H]([C@@H](C)O)C(=O)N2CC[C@H](O)[C@H]2C(=O)N[C@@H]([C@H](O)CC#N)C(=O)NCC(=O)N[C@@H]([C@@H](C)O)C(=O)N[C@@H](CCN)C(=O)O1
IC50 (Beta-1,3-glucan synthase): 19 nM

CCCCCCCCCCCCC[C@@H]1CC(=O)N[C@@H]([C@@H](C)O)C(=O)N[C@H](C)C(=O)N[C@@H](Cc2ccc(O)cc2)C(=O)N[C@@H](C(C)C)C(=O)N2C[C@H](O)C[C@H]2C(=O)N[C@@H]([C@@H](C)O)C(=O)N[C@@H]([C@@H](C)O)C(=O)N2CC[C@H](O)[C@H]2C(=O)N[C@@H]([C@H](O)CC(N)=O)C(=O)NCC(=O)N[C@@H]([C@@H](C)O)C(=O)N[C@@H](CCCN(C)C)C(=O)O1
IC50 (Beta-1,3-glucan synthase): 45 nM

CCCCCCCCCCCCC[C@@H]1CC(=O)N[C@@H]([C@@H](C)O)C(=O)N[C@H](C)C(=O)N[C@@H](Cc2ccc(O)cc2)C(=O)N[C@@H](C(C)C)C(=O)N2C[C@H](O)C[C@H]2C(=O)N[C@@H]([C@@H](C)O)C(=O)N[C@@H]([C@@H](C)O)C(=O)N2CC[C@H](O)[C@H]2C(=O)N[C@@H]([C@H](O)CC(N)=O)C(=O)NCC(=O)N[C@H]([C@@H](C)O)C(=O)N[C@@H](CCCN(CCN)CCN)C(=O)O1
IC50 (Candida albicans [2]): 0.1 µg/mL (≈ 0.0617 µM) | IC50 [4]: 10 µg/mL (≈ 6.17 µM) | IC50 (Beta-1,3-glucan synthase): 2 nM | ED50 (Mus musculus): 0.05 mg/kg | IC50 (Candida albicans [3]): 0.42 µg/mL

CCCCCCCCCCCCC[C@@H]1CC(=O)N[C@@H]([C@@H](C)O)C(=O)N[C@H](C)C(=O)N[C@@H](Cc2ccc(O)cc2)C(=O)N[C@@H](C(C)C)C(=O)N2C[C@H](O)C[C@H]2C(=O)N[C@@H]([C@@H](C)O)C(=O)N[C@@H]([C@@H](C)O)C(=O)N2CC[C@H](O)[C@H]2C(=O)N[C@@H]([C@H](O)CCN)C(=O)NCC(=O)N[C@@H]([C@@H](C)O)C(=O)N[C@@H](CCN)C(=O)O1
IC50 [1]: 10 µg/mL (≈ 6.64 µM) | IC50 (Candida albicans [2]): 0.01 µg/mL (≈ 0.00664 µM) | IC50 (Beta-1,3-glucan synthase): 6 nM | ED50 (Mus musculus): 0.04 mg/kg | IC50 (Candida albicans [3]): 0.18 µg/mL

CCCCCCCCCCCCC[C@@H]1CC(=O)N[C@@H]([C@@H](C)O)C(=O)N[C@H](C)C(=O)N[C@@H](Cc2ccc(O)cc2)C(=O)N[C@@H](C(C)C)C(=O)N2C[C@H](O)C[C@H]2C(=O)N[C@@H]([C@@H](C)O)C(=O)N[C@@H]([C@@H](C)O)C(=O)N2CC[C@H](O)[C@H]2C(=O)N[C@@H]([C@H](O)CC(N)=O)C(=O)NCC(=O)N[C@@H]([C@@H](C)O)C(=O)N[C@@H](CCCO)C(=O)O1
IC50 (Beta-1,3-glucan synthase): > 520 nM

CCCCCCCCCCCCC[C@@H]1CC(=O)N[C@@H]([C@@H](C)O)C(=O)N[C@H](C)C(=O)N[C@@H](Cc2ccc(OC)cc2)C(=O)N[C@@H](C(C)C)C(=O)N2C[C@H](O)C[C@H]2C(=O)N[C@@H]([C@@H](C)O)C(=O)N[C@@H]([C@@H](C)O)C(=O)N2CC[C@H](O)[C@H]2C(=O)N[C@@H]([C@H](O)CC(N)=O)C(=O)NCC(=O)N[C@@H]([C@@H](C)O)C(=O)N[C@@H](CCCN)C(=O)O1
IC50 (Beta-1,3-glucan synthase): 24 nM
